Assay results reported in patent US12508320B2, “Drug conjugate, pharmaceutical composition and method of treating hepatitis” (SeeCure Taiwan Co., Ltd., priority 2023, dated 2025).

Key:
[1] = test system: HepG2 2.2.15 cells (a cell line that expresses the hepatitis B virus); test: In vitro cell line evaluation: HBsAg/HBeAg levels in culture media of HepG2 2.2.15 cells (AXSYM system kit); type: cell-based; set-up: HBsAg level: unit of the concentration uncertain; conditions: 6-9 days of incubation
Experimental: In the following experimental examples, when HepG2 2.2.15 cells (a cell line that expresses the hepatitis B virus) are used, the cells are maintained in Dulbecco's modified Eagle's medium (DMEM) (Gibco BRL, Grand Island, NY, USA) plus 10% fetal bovine serum (Hyclone, Logan, UT, USA), 100U/mL penicillin, […] streptomycin. HepG2.2.15 cells were seeded at the same density and used as a medium control. The experimental group is composed by administering the substance in the concentration specified by the manufacturer. All cultures were grown in humidified incubators at 37° C. and 5% CO2.
HepG2 2.2.15 cells were plated into 12-well microtiter plates. On day zero, the cells were washed several times with PBS and treated with tetracycline-free medium that contained either a test drug or a vehicle control group. Each test compound was screened at one concentration in triplicate. On day 3, day 6 and/or day 9, the medium was removed and replaced with fresh medium containing the compound. Twenty-four hours later, the medium was collected and clarified by centrifugation (Sorvall RT-6000D centrifuge, 1,000 rpm, 5 min). Media of HepG2 2.2.15 cells cultures were harvested at 3—, 6-, and 9-days post-HBV infection, and levels of hepatitis B surface antigen (HBsAg) and hepatitis B e antigen (HBeAg) in culture media were measured using an AXSYM system kit (Abbott Diagnostika).
In experimental example 1, five hepatitis treatment groups were prepared and added to HepG2 2.2.15 cells for evaluation. Group 1 is a control group containing only medium (PBS), whereby no drug compound is added. Group 2 is where a conventional drug Entecavir […] is used alone. Group 3 (CPD-0148) is directed to a compound of formula (IA2) […]. Group 4 (CPD-0150) is directed to a compound of formula (IA3) […]. Group 5 (CPD-0147) is directed to a compound of formula (IA4) […]. After 6-9 days of incubation with the above treatment groups, the levels of hepatitis B surface antigen (HBsAg) were measured using an AXSYM system kit (Abbott Diagnostika), and the results are shown in FIG. 10.
In experimental example 2, eight hepatitis treatment groups were prepared and added to HepG2 2.2.15 cells for evaluation. Group 1 is a control group containing only medium (PBS), whereby no drug compound is added. Group 2 is where a conventional drug Birinapant […] is used alone. Group 3 (CPD-0004) is directed to a compound of formula (IB1) […]. Group 4 (CPD-0030) is directed to a compound of formula (IB7) […]. Group 5 (CPD-0036) is directed to a compound of formula (IB2) […]. Group 6 (CPD-0133) is directed to a compound of formula (IB3) […]. Group 7 (CPD-0142) is directed to a compound of formula (IB4) […]. Group 8 (CPD-0186) is directed to a compound of formula (IB5) […]. After 6-9 days of incubation with the above treatment groups, the levels of hepatitis B surface antigen (HBsAg) were measured using an AXSYM system kit (Abbott Diagnostika), and the results are shown in FIG. 11.
In experimental example 3, thirteen hepatitis treatment groups were prepared and added to HepG2 2.2.15 cells for evaluation. Group 1 is a control group containing only medium (PBS), whereby no drug compound is added. Group 2 (Teno-Int) is where an intermediate of the conventional drug Tenofovir (100 mM; structure shown in first step of FIG. 3) is used alone. Group 3 (CPD-0134) is directed to a compound of formula (IC1) […]. Group 4 (CPD-0136) is directed to a compound of formula (IC2) […]. Group 5 (CPD-0137) is directed to a compound of formula (IC3) (510 mM). Group 6 (CPD-0138) is directed to a compound of formula (IC4) […]. Group 7 (CPD-0139) is directed to a compound of formula (IC5) […]. Group 8 (CPD-0143) is directed to a compound of formula (IC6) […]. Group 9 (CPD-0144) is directed to a compound of formula (IC7) […]. Group 10 (CPD-0149) is directed to a compound of formula (IC8) […]. Group 11 (CPD-0158) is directed to a compound of formula (IC9) […]. Group 12 (CPD-0169) is directed to a compound of formula (IC10) […]. […]

[2] = clinical studies, Birinapant used in combination with HBV drugs such as Tenofovir or Entecavir; cited from earlier work
[3] = Experimental example 6, HepG2 2.2.15 cells, 100 mM (each), FIG. 15

With `C[C@@H](O)Cn1cnc2c(N)ncnc21` [Teno-Int, (R)-1-(6-amino-9H-purin-9-yl)propan-2-ol] the HBsAg level ([1]; Experimental example 3, HepG2 2.2.15 cells, 100 mM (IC3: 510 mM), FIG. 12) was “slightly reduced as compared to the control”.

With `CN[C@@H](C)C(=O)N[C@H](C(=O)N1CCC[C@H]1c1nc(C(=O)c2ccc(F)cc2)cs1)C1CCCCC1` [LCL161] the HBsAg level ([1]; Experimental example 4, HepG2 2.2.15 cells, 500 (unit uncertain), FIG. 13) was “capable of reducing the HBsAg level as compared with the control”.

For `CC[C@H](NC(=O)[C@H](C)NC)C(=O)N1C[C@@H](O)C[C@H]1Cc1c(-c2[nH]c3cc(F)ccc3c2C[C@@H]2C[C@H](O)CN2C(=O)[C@H](CC)NC(=O)[C@H](C)NC)[nH]c2cc(F)ccc12` [Birinapant], the side effects [2] is given as “cranial nerve palsies (or Bell's palsies)” and the HBsAg level ([1]; Experimental example 2, HepG2 2.2.15 cells, 500 (unit uncertain), FIG. 11) is given as “capable of reducing the HBsAg level as compared with the control”.

With `C=C1[C@H](CO)[C@@H](O)C[C@@H]1n1cnc2c(=O)[nH]c(N)nc21` [Entecavir] the HBsAg level ([1]; Experimental example 1, HepG2 2.2.15 cells, 100 (unit uncertain), FIG. 10) was “capable of reducing the HBsAg level as compared with the control”, the HBeAg level [1, 3] was “effective in reducing the HBsAg and HBeAg levels as compared with the control” and the HBsAg level [1, 3] was “effective in reducing the HBsAg and HBeAg levels as compared with the control”.
